Measured values as given in ChEMBL document CHEMBL1201862, “PubChem BioAssay data set” (2004).
The source made the active and inactive calls.

Assays:
[1] = test system: Vero; experiment: cells; assay type: functional; conditions: Chlorocebus sabaeus
[2] = test system: Vero; experiment: cells; assay type: functional, cell-based; conditions: Chlorocebus sabaeus
[3] = biological target: T1, Alkaline phosphatase, tissue-nonspecific isozyme (Homo sapiens, UniProt P05186); experiment: TNAP enzyme inhibition by screening hits, dose response, selectivity assay for mouse IAP inhibitor project, biochemical, human TNAP, uHTS hits (AID 488906); assay type: functional
T1 sequence (P05186 whole entry): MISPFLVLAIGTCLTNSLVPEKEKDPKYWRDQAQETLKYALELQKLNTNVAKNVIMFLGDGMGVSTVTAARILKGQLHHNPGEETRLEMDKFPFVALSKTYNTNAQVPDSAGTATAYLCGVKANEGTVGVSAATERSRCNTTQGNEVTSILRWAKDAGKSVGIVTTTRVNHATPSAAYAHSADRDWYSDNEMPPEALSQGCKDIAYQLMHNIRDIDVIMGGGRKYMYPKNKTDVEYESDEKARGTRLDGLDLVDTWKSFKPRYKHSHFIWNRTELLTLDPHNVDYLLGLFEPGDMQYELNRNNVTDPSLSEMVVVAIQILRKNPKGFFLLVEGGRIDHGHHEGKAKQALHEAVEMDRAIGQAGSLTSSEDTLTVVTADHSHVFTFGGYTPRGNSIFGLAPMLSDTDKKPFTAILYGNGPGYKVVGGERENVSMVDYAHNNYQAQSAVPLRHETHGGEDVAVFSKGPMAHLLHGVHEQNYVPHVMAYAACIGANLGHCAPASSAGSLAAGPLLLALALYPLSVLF

[4] = biological target: Intestinal-type alkaline phosphatase (Mus musculus, UniProt P24822); experiment: PubChem AID 488785; assay type: functional
Sequence of Intestinal-type alkaline phosphatase (Mus musculus, UniProt P24822) (P24822 whole entry): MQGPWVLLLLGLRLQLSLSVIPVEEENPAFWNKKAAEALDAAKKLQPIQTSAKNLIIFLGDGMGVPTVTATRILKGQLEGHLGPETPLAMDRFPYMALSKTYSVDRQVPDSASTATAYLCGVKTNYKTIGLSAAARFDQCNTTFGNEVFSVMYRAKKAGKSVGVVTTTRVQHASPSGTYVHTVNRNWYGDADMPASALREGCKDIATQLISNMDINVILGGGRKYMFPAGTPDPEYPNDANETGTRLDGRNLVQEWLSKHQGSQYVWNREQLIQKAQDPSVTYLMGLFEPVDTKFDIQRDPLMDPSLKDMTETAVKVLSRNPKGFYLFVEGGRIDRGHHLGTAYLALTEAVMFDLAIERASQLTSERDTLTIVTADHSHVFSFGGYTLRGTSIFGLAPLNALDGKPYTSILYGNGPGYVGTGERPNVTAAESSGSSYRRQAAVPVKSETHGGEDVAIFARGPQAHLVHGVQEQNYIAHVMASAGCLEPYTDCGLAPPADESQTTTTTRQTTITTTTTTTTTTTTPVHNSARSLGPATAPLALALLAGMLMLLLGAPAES

[5] = biological target: T2, Probable nicotinate-nucleotide adenylyltransferase (Staphylococcus aureus (strain N315), UniProt P65502); assay type: functional, Staphylococcus aureus subsp. aureus N315;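 for IC50 Mean: confirmatory dose-response retesting of NadD inhibitor hits first found in an ultra-high-throughput screen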
T2 sequence (P65502 whole entry): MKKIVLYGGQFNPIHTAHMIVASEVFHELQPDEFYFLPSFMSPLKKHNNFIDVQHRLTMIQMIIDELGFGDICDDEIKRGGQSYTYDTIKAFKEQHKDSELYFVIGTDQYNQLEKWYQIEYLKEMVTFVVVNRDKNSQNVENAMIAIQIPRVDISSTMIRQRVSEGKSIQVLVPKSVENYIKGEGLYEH

[6] = biological target: T2, Probable nicotinate-nucleotide adenylyltransferase; assay type: functional, Staphylococcus aureus subsp. aureus N315; conditions: read-out: IC50_Mean
[7] = biological target: Intestinal-type alkaline phosphatase (Homo sapiens, UniProt P09923); experiment: inhibition of human intestinal alkaline phosphatase – biochemical, dose response (AID 488876); assay type: functional
Sequence of Intestinal-type alkaline phosphatase (Homo sapiens, UniProt P09923) (P09923 whole entry): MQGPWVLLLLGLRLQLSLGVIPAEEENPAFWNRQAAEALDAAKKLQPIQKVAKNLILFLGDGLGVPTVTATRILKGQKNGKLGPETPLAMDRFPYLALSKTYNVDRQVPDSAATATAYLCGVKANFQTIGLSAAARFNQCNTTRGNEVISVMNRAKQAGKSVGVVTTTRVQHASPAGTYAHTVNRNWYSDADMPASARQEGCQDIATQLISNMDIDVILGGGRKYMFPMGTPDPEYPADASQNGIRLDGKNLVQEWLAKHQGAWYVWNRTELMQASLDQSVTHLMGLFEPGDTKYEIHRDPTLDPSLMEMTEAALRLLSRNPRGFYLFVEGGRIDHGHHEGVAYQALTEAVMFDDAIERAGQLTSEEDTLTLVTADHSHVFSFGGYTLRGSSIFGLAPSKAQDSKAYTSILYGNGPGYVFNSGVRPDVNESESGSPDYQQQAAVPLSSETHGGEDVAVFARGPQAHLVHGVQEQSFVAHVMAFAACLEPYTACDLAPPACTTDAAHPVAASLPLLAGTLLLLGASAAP

[8] = test system: H9c2; experiment: cells; assay type: functional, cell-based; conditions: Rattus norvegicus, H9c2, Myocardium;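 note: confirmatory concentration-response retest of ultra-high-throughput screening hits for modulation of myocardial damage; cell death induced by hydrogen peroxide oxidative stress; compound pretreatment for 60 min then peroxide exposure for 2 h; potency is for protecting the cells against peroxide damage rather than for killing them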
[9] = biological target: T3, E3 ubiquitin-protein ligase XIAP (Homo sapiens, UniProt P98170); experiment: Counter Screen using XIAP-Bir3 for Chemical Antagonists of Bir1/2 domains of IAP-family anti-apoptotic proteins. [Related pubchem assays (depositor defined):AID1018, AID1449, AID1514, AID1638, AID1749, AID1750, AID488957, AID488963]
T3 sequence (P98170 whole entry): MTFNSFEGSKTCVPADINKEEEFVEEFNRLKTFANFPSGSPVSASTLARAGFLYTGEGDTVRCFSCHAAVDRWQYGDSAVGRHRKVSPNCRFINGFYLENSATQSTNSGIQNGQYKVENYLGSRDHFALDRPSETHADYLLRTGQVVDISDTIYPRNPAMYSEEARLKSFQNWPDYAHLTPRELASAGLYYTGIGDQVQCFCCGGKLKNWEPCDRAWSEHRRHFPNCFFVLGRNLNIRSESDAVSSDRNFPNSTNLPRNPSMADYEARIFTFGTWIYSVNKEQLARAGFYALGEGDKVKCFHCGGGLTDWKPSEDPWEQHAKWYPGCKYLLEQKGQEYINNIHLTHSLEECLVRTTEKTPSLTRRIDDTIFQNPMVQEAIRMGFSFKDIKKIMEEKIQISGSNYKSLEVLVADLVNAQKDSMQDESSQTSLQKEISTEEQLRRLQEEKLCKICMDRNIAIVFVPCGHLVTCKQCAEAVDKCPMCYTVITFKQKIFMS

[10] = biological target: T3, E3 ubiquitin-protein ligase XIAP; experiment: XIAP antagonists, biochemical, IAP family, fluorescence polarization (AID 1018); assay type: functional
[11] = biological target: DNA dC->dU-editing enzyme APOBEC-3A (Homo sapiens, UniProt P31941); experiment: Dose Response confirmation of small molecule APOBEC3A DNA Deaminase Inhibitors via a fluorescence-based single-stranded DNA deaminase assay. [Related pubchem assays (depositor defined):AID493011, AID493024]; assay type: functional
Sequence of DNA dC->dU-editing enzyme APOBEC-3A (P31941 whole entry): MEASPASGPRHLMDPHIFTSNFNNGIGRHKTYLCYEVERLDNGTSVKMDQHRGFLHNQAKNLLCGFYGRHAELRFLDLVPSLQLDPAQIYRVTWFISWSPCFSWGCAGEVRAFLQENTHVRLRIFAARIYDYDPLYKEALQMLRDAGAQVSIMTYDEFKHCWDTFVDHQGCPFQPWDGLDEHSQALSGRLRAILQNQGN

[12] = biological target: DNA dC->dU-editing enzyme APOBEC-3G (Homo sapiens, UniProt Q9HC16); assay type: functional;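 note: Dose-response counterscreen measuring inhibition of APOBEC3G DNA deaminase activity, run while confirming APOBEC3A inhibitors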
Sequence of DNA dC->dU-editing enzyme APOBEC-3G (Q9HC16 whole entry): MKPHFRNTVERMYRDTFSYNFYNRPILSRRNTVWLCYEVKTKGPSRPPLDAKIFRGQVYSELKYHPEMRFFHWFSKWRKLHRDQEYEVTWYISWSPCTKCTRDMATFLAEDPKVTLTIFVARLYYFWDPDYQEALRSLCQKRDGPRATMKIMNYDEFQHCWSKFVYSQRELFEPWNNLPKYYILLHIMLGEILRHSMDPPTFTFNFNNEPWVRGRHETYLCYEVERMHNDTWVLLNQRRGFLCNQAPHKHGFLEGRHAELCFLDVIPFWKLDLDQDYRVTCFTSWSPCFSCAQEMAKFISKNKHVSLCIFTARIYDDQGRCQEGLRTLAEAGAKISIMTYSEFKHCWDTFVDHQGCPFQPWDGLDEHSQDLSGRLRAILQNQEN

[13] = biological target: Peroxisome proliferator-activated receptor gamma/Nuclear receptor coactivator 3 (Homo sapiens, UniProt P37231); experiment: TR-FRET dose response biochemical High Throughput Screening assay for agonists of the steroid receptor coactivator 3 (SRC-3) recruitment by the peroxisome proliferator-activated receptor gamma (PPAR gamma): non-selective agonists. [Related pubchem assays: 1301 (Confirmation screen.), 1048 (Primary screen.)]; assay type: functional
Sequence of Peroxisome proliferator-activated receptor gamma/Nuclear receptor coactivator 3 (P37231 whole entry): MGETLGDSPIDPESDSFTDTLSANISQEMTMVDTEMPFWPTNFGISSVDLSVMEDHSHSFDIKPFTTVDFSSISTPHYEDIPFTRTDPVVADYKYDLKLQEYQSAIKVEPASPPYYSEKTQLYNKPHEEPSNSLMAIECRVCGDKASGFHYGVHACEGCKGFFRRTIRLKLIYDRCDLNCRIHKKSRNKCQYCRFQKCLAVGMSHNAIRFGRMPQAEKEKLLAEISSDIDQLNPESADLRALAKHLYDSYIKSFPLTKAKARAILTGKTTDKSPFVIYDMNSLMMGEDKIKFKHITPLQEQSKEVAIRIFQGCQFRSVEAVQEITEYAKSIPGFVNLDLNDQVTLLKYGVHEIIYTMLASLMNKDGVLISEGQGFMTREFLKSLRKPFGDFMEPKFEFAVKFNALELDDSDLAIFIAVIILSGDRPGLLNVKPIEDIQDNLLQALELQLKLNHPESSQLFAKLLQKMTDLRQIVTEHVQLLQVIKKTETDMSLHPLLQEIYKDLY
Sequence of Peroxisome proliferator-activated receptor gamma/Nuclear receptor coactivator 3 (Q9Y6Q9 whole entry, further chain): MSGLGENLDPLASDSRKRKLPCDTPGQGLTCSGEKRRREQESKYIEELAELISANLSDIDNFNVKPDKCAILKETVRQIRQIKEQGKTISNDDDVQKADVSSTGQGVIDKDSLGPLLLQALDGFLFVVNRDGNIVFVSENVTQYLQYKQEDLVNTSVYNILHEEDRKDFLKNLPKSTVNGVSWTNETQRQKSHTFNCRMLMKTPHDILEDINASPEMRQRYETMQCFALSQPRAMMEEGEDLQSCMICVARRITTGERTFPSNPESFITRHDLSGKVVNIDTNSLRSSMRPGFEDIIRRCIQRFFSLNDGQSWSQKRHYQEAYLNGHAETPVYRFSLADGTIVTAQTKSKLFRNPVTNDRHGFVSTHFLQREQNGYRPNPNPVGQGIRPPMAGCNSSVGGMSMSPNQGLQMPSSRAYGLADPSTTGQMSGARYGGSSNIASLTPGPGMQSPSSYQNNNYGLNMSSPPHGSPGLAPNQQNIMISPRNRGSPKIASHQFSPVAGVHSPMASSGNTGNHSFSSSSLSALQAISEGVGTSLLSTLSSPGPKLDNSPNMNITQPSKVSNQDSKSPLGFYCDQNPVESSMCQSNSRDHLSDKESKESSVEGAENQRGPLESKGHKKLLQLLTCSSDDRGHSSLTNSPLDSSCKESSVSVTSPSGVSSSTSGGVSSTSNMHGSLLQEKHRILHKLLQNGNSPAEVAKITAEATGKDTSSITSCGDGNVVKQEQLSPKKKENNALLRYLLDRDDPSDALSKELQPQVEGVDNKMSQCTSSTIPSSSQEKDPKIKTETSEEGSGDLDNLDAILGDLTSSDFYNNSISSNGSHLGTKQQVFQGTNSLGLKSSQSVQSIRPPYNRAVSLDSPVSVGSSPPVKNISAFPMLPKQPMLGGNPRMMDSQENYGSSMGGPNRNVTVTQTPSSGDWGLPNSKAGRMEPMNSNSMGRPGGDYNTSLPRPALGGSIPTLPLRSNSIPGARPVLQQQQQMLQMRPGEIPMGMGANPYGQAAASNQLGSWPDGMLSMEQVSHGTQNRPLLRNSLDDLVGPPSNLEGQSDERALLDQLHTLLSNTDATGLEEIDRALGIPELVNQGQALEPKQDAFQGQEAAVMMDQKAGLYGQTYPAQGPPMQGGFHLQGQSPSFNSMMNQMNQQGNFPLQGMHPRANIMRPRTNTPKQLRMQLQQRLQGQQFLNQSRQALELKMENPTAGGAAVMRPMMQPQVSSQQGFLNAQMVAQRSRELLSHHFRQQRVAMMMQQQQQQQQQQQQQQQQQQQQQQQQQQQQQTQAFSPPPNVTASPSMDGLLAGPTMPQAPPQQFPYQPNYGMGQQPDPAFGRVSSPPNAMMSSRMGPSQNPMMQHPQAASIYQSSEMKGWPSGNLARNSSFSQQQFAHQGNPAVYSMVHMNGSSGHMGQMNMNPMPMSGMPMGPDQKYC

[14] = biological target: Peroxisome proliferator-activated receptor gamma/Nuclear receptor coactivator 2 (Homo sapiens, UniProt P37231); experiment: (§1) TR-FRET dose response biochemical High Throughput Screening assay for agonists of the steroid receptor coactivator 2 (SRC-2) recruitment by the peroxisome proliferator-activated receptor gamma (PPAR gamma): non-selective agonists. [Related pubchem assays: 1297, 1032 ]; assay type: functional
[15] = biological target: Cytochrome P450 2C19 (Homo sapiens, UniProt P33261); experiment: Cytochrome panel assay with activity outcomes. Panel member name: p450-cyp2c19 Compounds with AC50 equal or less than 10 uM are considered active; assay type: functional; conditions: read-out: AC50
Sequence of Cytochrome P450 2C19 (P33261 whole entry): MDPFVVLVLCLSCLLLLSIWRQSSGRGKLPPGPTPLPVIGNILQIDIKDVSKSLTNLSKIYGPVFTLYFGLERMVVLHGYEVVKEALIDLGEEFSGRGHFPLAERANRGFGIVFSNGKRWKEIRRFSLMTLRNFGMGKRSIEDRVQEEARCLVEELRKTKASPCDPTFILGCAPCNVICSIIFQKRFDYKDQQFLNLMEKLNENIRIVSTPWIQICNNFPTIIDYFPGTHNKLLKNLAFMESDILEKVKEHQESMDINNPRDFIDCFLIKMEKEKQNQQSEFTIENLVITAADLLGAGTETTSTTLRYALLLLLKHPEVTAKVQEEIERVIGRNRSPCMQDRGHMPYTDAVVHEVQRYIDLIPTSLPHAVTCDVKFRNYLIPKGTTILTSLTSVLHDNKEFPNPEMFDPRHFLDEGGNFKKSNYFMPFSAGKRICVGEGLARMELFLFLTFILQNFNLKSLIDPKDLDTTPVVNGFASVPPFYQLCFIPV

[16] = biological target: Peroxisome proliferator-activated receptor gamma/Nuclear receptor coactivator 1 (Homo sapiens, UniProt P37231); experiment: as §1, with “1 (SRC-1)” for “2 (SRC-2)”, “assays (depositor defined):AID1300, AID1808, AID504735, AID631]” for “assays: 1297, 1032 ]”; assay type: protein assay
[17] = biological target: T4, Coagulation factor XII (Homo sapiens, UniProt P00748); assay type: functional;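 note: activated factor XIIa alpha cleaving a fluorogenic AMC peptide substrate; inhibitor potency from loss of enzyme activity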
T4 sequence (P00748 whole entry): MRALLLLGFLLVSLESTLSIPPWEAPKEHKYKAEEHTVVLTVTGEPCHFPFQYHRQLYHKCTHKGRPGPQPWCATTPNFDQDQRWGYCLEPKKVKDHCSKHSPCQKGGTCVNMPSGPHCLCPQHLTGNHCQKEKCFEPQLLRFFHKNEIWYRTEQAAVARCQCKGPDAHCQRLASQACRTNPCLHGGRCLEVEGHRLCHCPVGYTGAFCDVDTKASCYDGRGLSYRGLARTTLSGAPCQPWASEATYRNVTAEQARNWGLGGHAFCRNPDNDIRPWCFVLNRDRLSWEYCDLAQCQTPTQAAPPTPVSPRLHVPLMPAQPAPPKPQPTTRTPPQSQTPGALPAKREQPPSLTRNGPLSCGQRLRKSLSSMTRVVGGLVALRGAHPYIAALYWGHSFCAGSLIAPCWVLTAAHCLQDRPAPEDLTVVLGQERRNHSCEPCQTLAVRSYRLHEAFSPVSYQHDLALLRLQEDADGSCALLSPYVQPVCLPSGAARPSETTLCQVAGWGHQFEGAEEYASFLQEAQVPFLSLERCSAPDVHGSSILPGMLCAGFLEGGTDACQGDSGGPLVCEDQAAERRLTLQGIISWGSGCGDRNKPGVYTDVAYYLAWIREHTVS

[18] = biological target: T5, Protein skinhead-1 (Caenorhabditis elegans, UniProt P34707); assay type: functional
T5 sequence (P34707 whole entry): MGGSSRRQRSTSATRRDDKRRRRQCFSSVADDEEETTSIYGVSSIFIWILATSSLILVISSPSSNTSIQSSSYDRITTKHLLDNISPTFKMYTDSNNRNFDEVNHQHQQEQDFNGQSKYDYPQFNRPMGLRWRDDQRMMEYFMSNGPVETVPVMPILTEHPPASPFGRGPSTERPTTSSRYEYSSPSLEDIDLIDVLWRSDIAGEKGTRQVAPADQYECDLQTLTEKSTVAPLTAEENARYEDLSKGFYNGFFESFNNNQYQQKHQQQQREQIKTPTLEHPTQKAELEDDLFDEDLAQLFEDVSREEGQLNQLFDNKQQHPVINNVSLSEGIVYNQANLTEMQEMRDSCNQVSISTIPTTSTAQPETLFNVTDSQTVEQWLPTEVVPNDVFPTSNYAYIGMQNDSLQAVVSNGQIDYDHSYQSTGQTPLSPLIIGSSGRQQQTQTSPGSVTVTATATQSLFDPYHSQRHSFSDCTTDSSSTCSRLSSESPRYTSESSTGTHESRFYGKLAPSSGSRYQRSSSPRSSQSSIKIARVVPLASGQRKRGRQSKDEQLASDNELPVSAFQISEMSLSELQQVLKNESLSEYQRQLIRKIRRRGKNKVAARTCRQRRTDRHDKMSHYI

[19] = biological target: T6, Carboxy-terminal domain RNA polymerase II polypeptide A small phosphatase 1 (Homo sapiens, UniProt Q9GZU7); experiment: inhibitors of CTDSP1, concentration-response testing, biochemical assay, absorbance-based, actives from ultra-high-throughput screening (AID 540297); assay type: functional
T6 sequence (Q9GZU7 whole entry): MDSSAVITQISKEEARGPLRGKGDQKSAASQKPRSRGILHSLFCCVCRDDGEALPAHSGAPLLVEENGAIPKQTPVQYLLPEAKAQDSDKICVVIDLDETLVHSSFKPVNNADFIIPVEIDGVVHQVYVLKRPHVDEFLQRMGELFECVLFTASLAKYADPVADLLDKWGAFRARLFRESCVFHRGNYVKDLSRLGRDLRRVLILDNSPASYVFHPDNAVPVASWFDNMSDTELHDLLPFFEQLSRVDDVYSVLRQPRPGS

[20] = biological target: T7, Tyrosine-protein phosphatase non-receptor type 7 (Homo sapiens, UniProt P35236); experiment: SAR analysis of chemical inhibitors of HePTP using a Fluorescent assay - Set 2. [Related pubchem assays (depositor defined):AID1059, AID1077, AID1661, AID2085, AID521]; assay type: functional
T7 sequence (P35236 whole entry): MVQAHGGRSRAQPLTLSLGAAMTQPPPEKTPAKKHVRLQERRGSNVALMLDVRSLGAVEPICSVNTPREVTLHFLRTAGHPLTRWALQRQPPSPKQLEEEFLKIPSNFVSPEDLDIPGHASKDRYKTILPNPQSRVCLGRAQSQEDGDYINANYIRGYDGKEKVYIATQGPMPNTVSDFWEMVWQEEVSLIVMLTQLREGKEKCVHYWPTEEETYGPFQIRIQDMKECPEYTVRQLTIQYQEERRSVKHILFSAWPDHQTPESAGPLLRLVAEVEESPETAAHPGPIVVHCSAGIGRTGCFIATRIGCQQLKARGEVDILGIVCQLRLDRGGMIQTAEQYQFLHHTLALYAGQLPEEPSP

[21] = biological target: Dual specificity protein phosphatase 3 (Homo sapiens, UniProt P51452); experiment: SAR VHR1 Fluorescent Assay for In Vitro dose response studies Set 2. [Related pubchem assays (depositor defined):AID1654, AID1661, AID1878]; assay type: functional
Sequence of Dual specificity protein phosphatase 3 (P51452 whole entry): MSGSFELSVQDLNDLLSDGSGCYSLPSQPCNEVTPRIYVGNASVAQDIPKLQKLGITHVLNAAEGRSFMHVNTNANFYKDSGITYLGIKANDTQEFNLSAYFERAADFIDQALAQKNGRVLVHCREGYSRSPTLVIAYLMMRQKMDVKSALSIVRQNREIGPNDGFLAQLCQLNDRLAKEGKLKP

[22] = test system: INS1; experiment: protection of INS-1E cells from cytokine death, dose response, ATP luminescence, dry powder (AID 488844); assay type: functional, cell-based; conditions: Rattus norvegicus
[23] = biological target: Albumin (Bos taurus, UniProt P02769); experiment: Counterscreen for inhibitors of T-cell receptor (TCR)-CD3 interaction: Fluorescence-based biochemical high throughput dose response assay to identify inhibitors of T-cell receptor (TCR)-CD3 interaction using a TAMRA-labeled BSA probe.; assay type: functional

## CCN(C(=O)CCN1C(=O)/C(=C/c2ccccc2)SC1=S)C1CCS(=O)(=O)C1 (stereo unspecified)
[1]
  CC50: 22.1 µM (active)
[2]
  IC50: > 25 µM (active)

## O=C(NNC(=O)c1cc2cc(Br)ccc2oc1=O)c1ccc(O)cc1O
[3]
  IC50: > 100 µM (inactive)
[4]
  IC50: 12.9 µM (active)
[5]
  IC50: 16.3 µM (active)
[6]
  IC50: 44.7 µM (active)
[7]
  IC50: > 100 µM (inactive)
[8]
  IC50: > 79 µM (inactive)

## COc1ccc(C(=O)N(CN2CCCC2=O)c2ccccc2OC)cc1OC
[9]
  IC50: > 100 µM (inactive)
[10]
  IC50: > 100 µM (not active)

## Cc1ccn(C)c(=N)c1
[11]
  IC50: 7.71 µM (active)
[12]
  IC50: 7.58 µM (active)

## Cn1c(=O)cc(SCC(=O)NCCCN2CCOCC2)c2ccc(Cl)cc21
[13]
  EC50: > 79.4 µM (not active)
[14]
  EC50: > 79.4 µM (not active)
[15]
  AC50: 10 µM (inconclusive)
[16]
  EC50: > 79.4 µM (inactive)

## CCn1nc(C)c(CNC(=O)c2cc(COc3ccc(F)cc3Cl)on2)c1C
[17]
  IC50: > 50 µM (inactive)

## Clc1ccc(-c2nc3cc(CN4CCCCC4)ccc3o2)cc1
[18]
  IC50: 4.15 µM (active)
[1]
  CC50: > 25 µM (active)
[2]
  IC50: > 25 µM (active)

## Clc1ccccc1CN1CCN(CCCc2ccccc2)CC1
[17]
  IC50: > 50 µM (inactive)

## Cc1cc(-c2ccccc2)nc2c(Br)c(C(=O)O)nn12
[11]
  IC50: 25.2 µM (active)
[19]
  IC50: 2.44 µM (active)
[12]
  IC50: 37.7 µM (active)

## COc1ccc(OC)c(C(=S)NCc2ccc(C(F)(F)F)cc2)c1
[20]
  IC50: 38.4 µM (active)
[21]
  IC50: 48.4 µM (active)

## COc1ccc(S(=O)(=O)N(C)C[C@@H]2Oc3c(NC(=O)c4cc(C)nn4C)cccc3C(=O)N([C@@H](C)CO)C[C@H]2C)cc1
[22]
  AC50: > 260 µM (inactive)

## COc1cc(/C=N/NC(=O)c2cc(O)cc(O)c2)ccc1OC(=O)c1ccccc1
[23]
  IC50: > 94.1 µM (inactive)
[3]
  IC50: 26.8 µM (active)
[4]
  IC50: 4.43 µM (active)
[7]
  IC50: 77.1 µM (active)
